Reference: patent publication US20110117055A1, “Methods of Treating Hepatitis C Virus with Oxoacetamide Compounds” (priority 2009, published 2011)

Each molecule was assayed on HCV2aChLuc virus (assay: In vitro HCVcc entry assay: HCV2aChLuc virus infection of Huh7 cells, Renilla luciferase read-out). Conditions: Hepatitis C virus, Huh-7, read-out: Activity class (IC50), tested according to the method of Example 3.
Format: cell-based, HCV genotype 2a

Row | SMILES | IC50
1 | COc1c(NC(=O)C(=O)c2ccc(OCCN3CCOCC3)c3ccccc23)cc(C(C)(C)C)cc1S(=O)(=O)N(C)C [Compound 2, N-(5-tert-butyl-3-(N,N-dimethylsulfamoyl)-2-methoxyphenyl)-2-(4-(2-morpholinoethoxy)naphthalen-1-yl)-2-oxoacetamide] | < 5 nM
2 | COc1c(NC(=O)C(=O)c2ccc(OCCN(CCO)CCO)c3ccccc23)cc(C(C)(C)C)cc1NS(C)(=O)=O [Compound 3, 2-(4-(2-(bis(2-hydroxyethyl)amino)ethoxy)-naphthalen-1-yl)-N-(5-tert-butyl-2-methoxy-3-(methylsulfonamido)phenyl)-2-oxoacetamide] | < 5 nM
3 | COc1c(C#N)cc(C(C)(C)C)cc1NC(=O)C(=O)c1ccc(OCCN2CCOCC2)c2ccccc12 [Compound 4, N-(5-tert-butyl-3-cyano-2-methoxyphenyl)-2-(4-(2-morpholinoethoxy)naphthalen-1-yl)-2-oxoacetamide] | < 5 nM
4 | CNC(=O)c1cc(C(C)(C)C)cc(NC(=O)C(=O)c2ccc(OCCN3CCOCC3)c3ccccc23)c1OC [Compound 6, 5-tert-butyl-2-methoxy-N-methyl-3-(2-(4-(2-morpholinoethoxy)naphthalen-1-yl)-2-oxoacetamido)benzamide] | < 5 nM
5 | CCNC(=O)c1cc(C(C)(C)C)cc(NC(=O)C(=O)c2ccc(OCCN3CCOCC3)c3ccccc23)c1OC [Compound 7, 5-tert-butyl-N-ethyl-2-methoxy-3-(2-(4-(2-morpholinoethoxy)naphthalen-1-yl)-2-oxoacetamido)benzamide] | < 5 nM
6 | CCNC(=O)c1cc(C(C)(C)C)cc(NC(=O)C(=O)c2ccc(OC)c3ccccc23)c1OC [Compound 8, 5-tert-butyl-N-ethyl-2-methoxy-3-(2-(4-methoxynaphthalen-1-yl)-2-oxoacetamido)benzamide] | < 5 nM
7 | COCCNC(=O)c1cc(C(C)(C)C)cc(NC(=O)C(=O)c2ccc(OCCN3CCOCC3)c3ccccc23)c1OC [Compound 9, 5-tert-butyl-2-methoxy-N-(2-methoxyethyl)-3-(2-(4-(2-morpholinoethoxy)naphthalen-1-yl)-2-oxoacetamido)benzamide] | < 5 nM
8 | COc1c(NC(=O)C(=O)c2ccc(OCCN3CCOCC3)c3ccccc23)cc(C(C)(C)C)cc1C(=O)Nc1ccccn1 [Compound 10, 5-tert-butyl-2-methoxy-3-(2-(4-(2-morpholinoethoxy)naphthalen-1-yl)-2-oxoacetamido)-N-(pyridin-2-yl)benzamide] | < 5 nM
9 | COC(=O)c1sc(C(C)(C)C)cc1NC(=O)C(=O)c1ccc(OCCN2CCOCC2)c2ccccc12 [Compound 11, methyl 5-tert-butyl-3-(2-(4-(2-morpholinoethoxy)naphthalen-1-yl)-2-oxoacetamido)thiophene-2-carboxylate] | < 5 nM
10 | CNC(=O)c1sc(C(C)(C)C)cc1NC(=O)C(=O)c1ccc(OCCN2CCOCC2)c2ccccc12 [Compound 12, 5-tert-butyl-N-methyl-3-(2-(4-(2-morpholinoethoxy)naphthalen-1-yl)-2-oxoacetamido)thiophene-2-carboxamide] | < 5 nM
11 | COc1c(NC(=O)C(=O)c2ccc(OCCN3CCOCC3)c3ccccc23)cc(C)cc1NS(C)(=O)=O [Compound 13, N-(2-methoxy-5-methyl-3-(methylsulfonamido)phenyl)-2-(4-(2-morpholinoethoxy)naphthalen-1-yl)-2-oxoacetamide] | 5 to 500 nM
12 | COc1ccc(C(C)(C)C)cc1NC(=O)C(=O)c1ccc(OC)c2ccccc12 [Compound 14, N-(5-tert-butyl-2-methoxyphenyl)-2-(4-methoxynaphthalen-1-yl)-2-oxoacetamide] | < 5 nM
13 | COc1ccc(C2CCCCC2)cc1NC(=O)C(=O)c1ccc(OCCN2CCOCC2)c2ccccc12 [Compound 15, N-(5-cyclohexyl-2-methoxyphenyl)-2-(4-(2-morpholinoethoxy)naphthalen-1-yl)-2-oxoacetamide] | < 5 nM
